Assay results taken from paper PMC9666555, “Genuine selective caspase-2 inhibition with new irreversible small peptidomimetics” (Cell Death & Disease, 2022).

Columns and labels:
[1] = test system: Casp2-mediated Mdm-2 cleavage in H9 hESC-derived NPCs; assay: Reversine-induced Mdm-2 cleavage in neural progenitor cells (WB); assay type: cell-based, human; conditions: 1 µM reversine 24 h
Procedure: The H9 human embryonic stem cell (hESC) line (WA09, WiCell) was maintained on mouse embryonic fibroblasts (MTI-GlobalStem) feeder culture in HUESM medium (20% KSR in KO-DMEM, 1% MEM-NEAA, 1% Pen–Strep, 0.1 mM 2 mercaptoethanol (Life technologies) 10 ng ml^−1 FGF2 (Biotechne), and differentiated into NPCs as previously described [Supplementary ref. 10] [Supplementary ref. 11]. In brief, hESC colonies were lifted with collagenase IV (1 mg ml^−1 in DMEM) at 37 °C for 1–2 h. Colonies lifted from the plate were transferred to a non-adherent plate (Corning) to generate embryoid bodies (EBs) for 1 day in N2/B27 medium (DMEM/F12-GlutaMAX, 1× N2 supplement, 1× B27 no RA supplement; Life). EBs were cultured in suspension in N2/B27 medium with dual-SMAD inhibitors (0.1 µM LDN193189 and 10 µM SB431542) for 7 days. […]
H9-hNPCs were pretreated (or not) for 1 h with LJ3a and treated with 1 µM reversine (#10004412, Cayman Chemicals, Ann Arbor, MI) for 24 h. […] After the BCA assay for protein quantification, samples were subject to polyacrylamide gel electrophoresis-sodium dodecyl sulfate analysis (60 min, 200 V, 12% bis–tris 12-well gels), followed by transfer to nitrocellulose membrane (60 min, 30 V). […] Protein bands were quantified using Image Studio Lite Quantification software (LI-COR®, Lincoln, NE). […]
recorded on the LJ3a sample. […]

Cathepsin-D = Cathepsin-D (Homo sapiens, UniProt P07339); assay: Non-caspase enzyme assay, Cathepsin-D; assay type: biochemical; conditions: concentrations up to 10 µM
Procedure: Stock solutions were stored at −80 °C. […]
Non-caspase enzyme assays
The human pro- kallikrein-1 (pro-hK1) was activated in a buffer containing: Tris-HCl 50 mM, CaCl2 10 mM, NaCl 150 mM, Brij-35 0,05% pH 7,5. Human pro-kallikrein-6 and -8 (pro-hK6 and 8 were activated using Lysyl-endopeptidase (Wako- BioProducts®) at a 1/500 weight ratio, in a buffer containing 50 mM Tris and 0,05% Brij-35 (pH 8). Kinetics using non-caspase enzymes for selectivity studies were done according to the following conditions.
Enzymes Substrates Buffers
Cathepsine B (0.2 nM) z-RR-AMC 20 µM Acétate de sodium 0,1 M; EDTA 1mM ; […]
Cathepsine L (1.2 nM) RLR-AMC 25 µM Acétate de sodium 0,1 M; EDTA 1mM ; […]
Cathepsine D (0.1 nM) Mca-Gly-Ly s-Pro-Ile-Leu-Phe-Phe- Citrate de Sodium 0,1 M; EDTA 2 mM ; Arg-Leu-Lys(Dnp)-D-Arg-NH2 10 µM Brij-35 0,01%; pH 4 hK1 (4 nM) Boc-VPR-AMC 100µM Tris 50mM; Citrate 1M; Brij-35 0.05%; pH7 hK6 (2 nM ) Boc-QAR -AMC 100 µM Tris 50mM; Citrate 1M; Brij-35 0.05%; pH7 hK8 (1 nM) Boc-VPR-AMC 100µM Tris 50mM; Citrate 1M; Brij-35 0.05%; pH7
Thrombine (10 mU/mL) Boc-VPR-AMC 100µM Tris 50mM; Citrate 1M; Brij-35 0.05%; pH7 Plasmine (4 nM ) Boc-QAR -AMC 100µM Tris 50mM; Citrate 1M; Brij-35 0.05%; pH7 Trypsine (0.1 nM) Boc-QAR -AMC 100µM Tris 50mM; Citrate 1M; Brij-35 0.05%; pH7

Cathepsin-D, sequence (P07339 65-412): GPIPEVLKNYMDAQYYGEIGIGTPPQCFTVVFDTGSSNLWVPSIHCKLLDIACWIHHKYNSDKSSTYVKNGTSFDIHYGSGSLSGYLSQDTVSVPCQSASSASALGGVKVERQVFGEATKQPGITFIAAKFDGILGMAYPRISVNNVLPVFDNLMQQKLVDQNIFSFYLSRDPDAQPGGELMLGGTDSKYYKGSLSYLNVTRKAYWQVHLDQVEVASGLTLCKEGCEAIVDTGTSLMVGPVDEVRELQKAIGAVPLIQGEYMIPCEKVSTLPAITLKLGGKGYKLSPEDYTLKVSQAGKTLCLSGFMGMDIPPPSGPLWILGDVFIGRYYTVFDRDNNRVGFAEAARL

Q: What does the source list for `CC(C)[C@H](NC(=O)c1ccc2ccccc2n1)C(=O)N[C@@H](CC(=O)O)C(=O)N[C@H](C(=O)N1CC[C@H](CC(C)(C)C)[C@@H]1C(=O)NC(CC(=O)O)C(=O)COc1c(F)cccc1F)C(C)C` (stereo partly drawn) [LJ3a]?
A: effect on reversine-induced Mdm-2 cleavage ([1]; 10 µM): completely abolished; effect on reversine-induced Mdm-2 cleavage ([1]; submicromolar concentrations): significantly prevented; effect on Cathepsin-D (Cathepsin-D): very limited or no effect
